Like-named read-outs stand apart in the source and are kept apart here. Marks after values point to notes of the source that are not given here.
Legend:
[1] = test system: Puccinia recondita; assay: In vivo preventive test on Puccinia recondita (brown rust on wheat), Examples C and R3; conditions: preventive spray, evaluated 11 days after inoculation; for pest or weed control at 100 ppm / pest or weed control at 500 ppm: Puccinia recondita, 264 h
[2] = Measurement of LogP values by HPLC on reversed phase columns (EEC directive 79/831 Annex V.A8); assay type: physicochemical; conditions: for chromatographic logP: method [a]: LC-UV, acidic range, 0.1% formic acid in water and acetonitrile as eluent
Experimental: Measurement of Log P values was performed as outlined above.

[3] = test system: Uromyces appendiculatus; assay: In vivo preventive test on Uromyces appendiculatus (bean rust), Examples G and R7; conditions: 264 h, preventive spray, evaluated 11 days after inoculation
[4] = test system: Septoria tritici; assay: In vivo preventive test on Septoria tritici (leaf spot on wheat), Examples E, Q3 and R5; conditions: Zymoseptoria tritici, 576 h, preventive spray, evaluated 24 days after inoculation
[5] = test system: Sphaerotheca fuliginea; assay: In vivo preventive test on Sphaerotheca fuliginea (powdery mildew on cucurbits), Examples F and R6; conditions: Podosphaera fuliginea, 360 h, preventive spray, evaluated 15 days after inoculation
[6] = Example R3, wheat, 100 ppm, read-out: Efficacy in %
[7] = Example R3, wheat, 500 ppm, read-out: Efficacy in %
[8] = 500 ppm of active ingredient, wheat, read-out: efficacy
[9] = 500 ppm of active ingredient, bean, read-out: efficacy
[10] = 500 ppm of active ingredient, gherkin, read-out: efficacy
[11] = Table 2, compounds of formula (XVII)
[12] = Example R5, wheat, read-out: Efficacy in %
[13] = Example R5, wheat, 500 ppm, read-out: Efficacy in %
[14] = Example R6, gherkin, read-out: Efficacy in %
[15] = Example R6, gherkin, 500 ppm, read-out: Efficacy in %

Work on `OC(Cc1ccccc1Cl)(Cn1cnc(Br)c1)C1(Cl)CC1` (stereo not shown) [drawing 87] yielded a pest or weed control at 100 ppm [1, 6] of 75% and a pest or weed control at 500 ppm [1, 7] of 81%.

For `O=C(Cc1ccccc1F)c1cncn1CC(O)(Cc1ccccc1F)C1(Cl)CC1` (racemic) [Example I-134], the LogP [2] was 3.60^[a].

`Cc1cn(CC(O)(Cc2ccccc2Cl)C2(Cl)CC2)cn1` (stereo not shown) [drawing 161] gave a pest or weed control at 100 ppm ([3]; Example R7, bean, 100 ppm, read-out: Efficacy in %) of 0% and a pest or weed control at 500 ppm ([3]; Example R7, bean, 500 ppm, read-out: Efficacy in %) of 100%.

Compound `N#Cc1cncn1CC(O)(Cc1ccccc1Cl)C1CCC1` (stereo not shown) [Example I-81] has a pest or weed control at 500 ppm [4, 8] of 90 to 100%, a pest or weed control at 500 ppm [3, 9] of 90 to 100% and a pest or weed control at 500 ppm [1, 8] of 90 to 100%. For the same compound, the pest or weed control at 500 ppm [5, 10] was 90 to 100%.

`COC(=O)c1cncn1CC(=O)C1(Cl)CC1` [XVII-6] showed a chromatographic logP [2, 11] of 1.2.

In the case of `N#Cc1cncn1CC(O)(Cc1cccc(Cl)c1F)C1(F)CC1` (stereo not shown) [Example I-94], the chromatographic logP ([2]; Table 1) is reported as 2.68.

`Cc1cn(CC(O)(Cc2ccccc2Cl)C2(Cl)CC2)cn1` (stereo not shown) [drawing 125] showed a pest or weed control at 100 ppm [4, 12] of 17% and a pest or weed control at 500 ppm [4, 13] of 33%.

Compound `N#Cc1cn(CC(O)(Cc2ccccc2F)C2(Cl)CC2)cn1` (stereo not shown) [drawing 140] has a pest or weed control at 100 ppm [4, 12] of 14% and a pest or weed control at 500 ppm [4, 13] of 86%.

For `N#Cc1cncn1CC(=O)C1CC1` [XVII-3], the chromatographic logP [2, 11] was 0.74.

`N#Cc1cn(CC(O)(Cc2ccc(Cl)cc2F)C2(Cl)CC2)cn1` (racemic) [drawing 100] showed an Efficacy in % ([1]; Example R3, wheat, 100 ppm) of 81% and an Efficacy in % ([1]; Example R3, wheat, 500 ppm) of 94%.

`N#Cc1cncn1CC(O)(Cc1ccnnc1Cl)C1(Cl)CC1` (stereo not shown) [Example I-168] gave a chromatographic logP ([2]; Table 1) of 1.59.

For `Cc1cn(CC(O)(Cc2ccccc2Cl)C2(Cl)CC2)cn1` (stereo not shown) [drawing 144], the pest or weed control at 100 ppm [5, 14] was 0% and the pest or weed control at 500 ppm [5, 15] was 30%.

For `OC(Cc1ccc(Cl)cc1F)(Cn1cncc1Cl)C1(Cl)CC1` (single isomer, unassigned) [Example I-113], the LogP [2] was 2.54^[a].

Work on `N#Cc1cncn1CC(O)(Cc1ccncc1F)C1(Cl)CC1` (stereo not shown) [Example I-163] yielded a chromatographic logP ([2]; Table 1) of 1.62.

`OC(Cc1ccccc1F)(Cn1ccnc1Cl)C1(Cl)CC1` (stereo not shown) [drawing 96] gave a pest or weed control at 100 ppm [1, 6] of 0% and a pest or weed control at 500 ppm [1, 7] of 0%.

`N#Cc1cncn1CC(O)(Cc1cc(Cl)nc(Cl)c1)C1(Cl)CC1` (stereo not shown) [Example I-61] showed a pest or weed control at 500 ppm [4, 8] of 90 to 100%, a pest or weed control at 500 ppm [3, 9] of 90 to 100% and a pest or weed control at 500 ppm [1, 8] of 70 to 79%. The pest or weed control at 500 ppm [5, 10] was 90 to 100%.

Compound `O=C(Cn1cncc1Cl)C1(Cl)CC1` [XVII-1, 1-(1-chlorocyclopropyl)-2-(5-chloro-1H-imidazol-1-yl)ethanone] has a chromatographic logP [2, 11] of 0.75.

With `CC(C)(C)CC(O)(Cc1ccc(Cl)cc1)Cn1cncc1C#N` (stereo not shown) [Example I-86] the chromatographic logP ([2]; Table 1) was 3.37.

`CC1(C(O)(Cc2ccc(F)c(F)c2F)Cn2cncc2C#N)CC1` (stereo not shown) [Example I-102] gave a chromatographic logP ([2]; Table 1) of 2.82.

In the case of `CC(C)(C)CC(O)(Cc1ccccc1Cl)Cn1cncc1C#N` (stereo not shown) [Example I-83], the chromatographic logP ([2]; Table 1) is reported as 3.55.

In the case of `CC(C)C(O)(Cc1ccc(F)cc1)Cn1cncc1C#N` (stereo not shown) [Example I-162], the chromatographic logP ([2]; Table 1) is reported as 2.44.

With `OC(Cc1ccccc1Cl)(Cn1cncc1-c1ccccc1)C1(Cl)CC1` (stereo not shown) [Example I-09] the pest or weed control at 500 ppm [4, 8] was 70 to 79%, the pest or weed control at 500 ppm [3, 9] was 90 to 100% and the pest or weed control at 500 ppm [5, 10] was 90 to 100%.

With `OC(Cc1ccccc1Cl)(Cn1cnc(Br)c1)C1(Cl)CC1` (stereo not shown) [drawing 142] the pest or weed control at 100 ppm [5, 14] was 20% and the pest or weed control at 500 ppm [5, 15] was 30%.

`OC(Cc1ccc(Cl)cc1F)(Cn1cnc(Cl)c1)C1(Cl)CC1` (racemic) [drawing 102] gave an Efficacy in % ([1]; Example R3, wheat, 100 ppm) of 0% and an Efficacy in % ([1]; Example R3, wheat, 500 ppm) of 67%.

`CCCCC(=O)Cn1cncc1C#N` [XVII-19] showed a chromatographic logP [2, 11] of 1.6.

For `N#Cc1cn(CC(O)(Cc2ccccc2Cl)C2(Cl)CC2)cn1` (stereo not shown) [drawing 91], the pest or weed control at 100 ppm [1, 6] was 0% and the pest or weed control at 500 ppm [1, 7] was 83%.

For `CC(C)(Cl)C(=O)Cn1cncc1C#N` [XVII-8], the LogP [2] was 1.65^[a].

`N#Cc1cncn1CC(O)(Cc1ccc(F)c(F)c1F)C1(F)CC1` (stereo not shown) [Example I-93] showed a chromatographic logP ([2]; Table 1) of 2.52.

`CC(C)(F)C(=O)Cn1cncc1C#N` [XVII-11] showed a chromatographic logP [2, 11] of 1.31.

`N#Cc1cncn1CC(=O)C1(C#N)CC1` [XVII-9] gave a chromatographic logP [2, 11] of 0.9.

Compound `N#Cc1cncn1CC(O)(Cc1ccc(F)cc1F)C1CCC1` (stereo not shown) [Example I-127] has a pest or weed control at 500 ppm [4, 8] of 90 to 100%, a pest or weed control at 500 ppm [3, 9] of 90 to 100% and a pest or weed control at 500 ppm [1, 8] of 80 to 89%. The pest or weed control at 500 ppm [5, 10] was 90 to 100%.
